# From patent publication US9018235B2, “Insecticide compositions” (priority 2004, dated 2015)
# Read-outs that look alike come from different tables or passages of the source.
# What was measured:
# Format in all cases: in vivo
# Spodoptera litura [1] = experiment: Insecticidal effect against Spodoptera litura by soaking treatment of soybean leaves (Test Example 1); settings: single compound, 0.03 ppm; soybean leaf soaking; 3-instar larvae; 25° C.
# Experimental: A test compound was dissolved by addition of acetone containing 5% of Tween 20 (tradename) at the rate of 0.1 ml per 1 mg of the test compound, and after the solution is diluted with aqueous 5,000-fold diluted DAIN solution to a predetermined concentration, soybean leaves after complete development of primary leaves were treated through soaking in the insecticide solution for several seconds. After the insecticide solution was dried, four primary leaves were cut off and placed in an ice-cream cup (with a capacity of 180 ml), in which 10 heads of 3-instra larvae of Spodoptera litura were released. The ice-cream cup was kept in a breeding room controlled at a constant temperature (25° C.), and the number of dead larvae was counted three days later. Death rate of larvae=(Number of larvae dead)/(Number of larvae tested)×100 [Equation 1]
# (§1) When the effect obtained by combination of two kinds of the active compounds exceeds the expected value E as calculated by the below-described equation of Colby et al., the synergistic effect is deemed to exist. E=X+Y−X·Y/100 [Equation 2] wherein • E=the death rate of larvae obtained when the active compounds A and B are used at the dose of m and n, respectively; • X=the death rate of larvae when the active compound A is used at the dose of m; • Y=the death rate of larvae when the active compound B is used at the dose of n.
# Spodoptera litura [2] = experiment: Insecticidal effect against Spodoptera litura through soaking treatment of soybean roots (Test Example 2); settings: single compound, soybean root soaking, 3-instar larvae
# Source text: as §1
# A test compound was dissolved by adding acetone containing 5 of Tween 20 (tradename) at the rate of 0.1 ml per 1 mg of the test compound, and the insecticide solution prepared by diluting the solution with ion-exchange water to a predetermined concentration was charged into a light-shielded Erlenmeyer flask (100 ml), into which the root portion of a soybean plant in the stage of development of primary leaves was soaked after being washed with running water to remove soil. Five days after root soaking, two primary leaves were cut off and placed in an ice-cream cup (with a capacity of 180 ml), into which 10 heads of 3-instar larvae were released. The ice-cream cup was kept in a breeding room controlled at a constant temperature (25° C.), and 5 days later, the number of dead larvae was counted. Death rate of larvae=(Number of larvae dead)/(Number of larvae tested)×100 [Equation 3]
# Chilo suppressalis = test system: Chilo suppressalis
# Source text: as §1
# A test compound was dissolved by adding acetone containing 5% of Tween 20 (tradename) at the rate of 0.1 ml per 1 mg of the test compound, and the insecticide solution prepared by diluting the solution with ion-exchange water to a predetermined concentration was drenched onto the surface of the soil for raising rice seedlings (5 to 6 seedlings/plant as planted in a paper pot) in the 2.5- to 3-leaf stage at the rate of 1 ml per plant. Two days later, the stalks about 2 cm higher above the soil surface were cut and placed in a test tube, into which 10 heads of 3-instar larvae of Chilo suppressalis were released. The test rube was kept in a breeding chamber controlled at a constant temperature (25° C.), and the number of living larvae was counted 4 to 5 days later. Death rate of larvae=(Number of larvae dead)/(Number of larvae tested)×100 [Equation 4]
# Plutella xylostella [3] = experiment: Insecticidal effect against Plutella xylostella through plant-root soil drenching of cabbage (Test Example 4); settings: single compound, plant-root drench, 2-instar larvae
# Source text: as §1
# A test compound was dissolved by adding acetone containing 5% of Tween 20 (tradename) at the rate of 0.1 ml per 1 mg of the test compound, and the solution was diluted with ion-exchange water to a total volume of 3 ml. Each of the insecticide solutions prepared was drenched onto the surface of the plant root soil for a cabbage plant grown in a cell tray (with a soil capacity of 24 ml). Four days later, the above-ground part of the plant was cut and placed in a plastic cup, into which 10 heads of 2-instar larvae of Plutella xylostella were released. The cup was kept in a breeding chamber controlled at a constant temperature (25° C.), and the number of living larvae was counted 4 days later. Death rate of larvae=(Number of larvae dead)/(Number of larvae tested)×100 [Equation 5]
# Plutella xylostella [4] = experiment: Insecticidal effect against Plutella xylostella through soaking treatment of cabbage leaf (Test Example 5); settings: single compound, amount applied 0.0064 mg/plant (as headed), 2-instar larvae
# Source text: as §1
# A test compound was dissolved by adding acetone containing 5% of Tween 20 (tradename) at the rate of 0.1 ml per 1 mg of the test compound, and the insecticide solution was prepared by diluting the solution with an aqueous 5.000-fold diluted DAIN solution to a predetermined concentration. A cabbage leaf was cut off at the site of petiole and soaked in the insecticide solution for several seconds. […] The cup was kept in a breeding room controlled at a constant temperature (25° C.), and the number of dead larvae was counted 4 days later. The death rate of larvae was calculated by the following equation, and the results were shown in Table 8: (Death rate of larvae=(Number of larvae dead)/(Number of larvae tested)×100 [Equation 6]
smiles,measurement,setting,value
"CN/C(=N\[N+](=O)[O-])NCc1cnc(Cl)s1 [Clothianidin, (E)-1-(2-chloro-1,3-thiazol-5-ylmethyl)-3-methyl-2-nitroguanidine]","Death rate, 3 days later, %",Spodoptera litura [1],0%
same,"Death rate, 5 days later, %",Spodoptera litura [2]; 0.00032 ppm,0%
same,"Death rate, 4 days later, %","Chilo suppressalis; single compound, 0.001 mg/plant, soil drench, rice, 3-instar larvae",10%
"Cc1cc(Cl)cc(C(=O)NC(C)C)c1NC(=O)c1cc(C(F)(F)F)nn1-c1ncccc1Cl [Compound (I-2), 5-chloro-2-[1-(3-chloropyridin-2-yl)-3-trifluoromethylpyrazol-5-ylcarbonylamino]-N-isopropyl-3-methylbenzamide]","Death rate, 3 days later, %",Spodoptera litura [1],30%
same,"Death rate, 4 days later, %",Plutella xylostella [3]; 0.0016 mg/plant,0%
"CN1COCN(Cc2cnc(Cl)s2)C1=N[N+](=O)[O-] [Thiamethoxam, 3-(2-chloro-1,3-thiazol-5-yl-methyl)-5-methyl-1,3,5-oxa-diazinan-4-ylidene(nitro)amine]","Death rate, 5 days later, %",Spodoptera litura [2]; 0.007 ppm,0%
same,"Death rate, 4 days later, %",Plutella xylostella [4],10%
"CNC(=N[N+](=O)[O-])NCC1CCOC1 (racemic) [Dinotefuran, (RS)-1-methyl-2-nitro-3-(tetrahydro-3-furylmethyl)guanidine]","Death rate, 5 days later, %",Chilo suppressalis; in vivo,0%
same,"Death rate, 4 days later, %",Plutella xylostella [3]; 0.0016 mg/plant,0%
same,"Death rate, 4 days later, %",Plutella xylostella [3]; 0.04 mg/plant,10%
"Cc1cccc(C(=O)NC(C)C)c1NC(=O)c1cc(Br)nn1-c1ncccc1Cl [Compound (I-5), 2-[3-bromo-1-(3-chloropyridin-2-yl)pyrazol-5-ylcarbonylamino]-N-isopropyl-3-methylbenzamide]","Death rate, 5 days later, %","Chilo suppressalis; single compound, 0.15 mg/plant, soil drench, rice, 3-instar larvae",5%
"Cc1cccc(C(=O)NC(C)C)c1NC(=O)c1cc(Cl)nn1-c1ncccc1Cl [Compound (I-3), 2-[1-(3-chloropyridin-2-yl)-3-chloropyrazol-5-ylcarbonylamino]-N-isopropyl-3-methylbenzamide]","Death rate, 4 days later, %",Plutella xylostella [3]; 0.04 mg/plant,50%
"Cc1cc(Cl)cc(C(=O)NC(C)C)c1NC(=O)c1cc(Br)nn1-c1ncccc1Cl [Compound (I-6), 2-[3-bromo-1-(3-chloropyridin-2-yl)-pyrazol-5-ylcarbonylamino]-5-chloro-N-isopropyl-3-methylbenzamide]","Death rate, 5 days later, %",Spodoptera litura [2]; 0.00032 ppm,0%
"Cc1cc(Cl)cc(C(=O)NC(C)C)c1NC(=O)c1cc(Cl)nn1-c1ncccc1Cl [Compound (I-4), 5-chloro-2-[1-(3-chloropyridin-2-yl)-3-chloropyrazol-5-ylcarbonylamino]-N-isopropyl-3-methylbenzamide]","Death rate, 4 days later, %",Plutella xylostella [4],15%
"Cc1cccc(C(=O)NC(C)C)c1NC(=O)c1cc(C(F)(F)F)nn1-c1ncccc1Cl [Compound (I-1), 2-[1-(3-chloropyridin-2-yl)-3-trifluoromethylpyrazol-5-ylcarbonylamino]-N-isopropyl-3-methylbenzamide]","Death rate, 5 days later, %",Spodoptera litura [2]; 0.007 ppm,55%
same,"Death rate, 4 days later, %","Chilo suppressalis; single compound, 0.01 mg/plant, soil drench, rice, 3-instar larvae",30%
